# From PMC11079024, “Identification of a family of species-selective complex I inhibitors as potential anthelmintics” (Nature Communications, 2024)
# Like-named read-outs stand apart in the source and are kept apart here.
# Legend:
# L1 wild-type C. elegans = assay: microbe, parasite or virus in culture; settings: Caenorhabditis elegans, read-out: C. elegans KCN Survival Assay LC50, estimated from fitted dose-response curves; mean of at least two biological replicates
# [1] = target: B. taurus (heart) complex I (Bos taurus, UniProt P03887+P17694+P42026); assay: biochemical; assay type: biochemical
# B. taurus (heart) complex I, sequence (P03887 whole entry): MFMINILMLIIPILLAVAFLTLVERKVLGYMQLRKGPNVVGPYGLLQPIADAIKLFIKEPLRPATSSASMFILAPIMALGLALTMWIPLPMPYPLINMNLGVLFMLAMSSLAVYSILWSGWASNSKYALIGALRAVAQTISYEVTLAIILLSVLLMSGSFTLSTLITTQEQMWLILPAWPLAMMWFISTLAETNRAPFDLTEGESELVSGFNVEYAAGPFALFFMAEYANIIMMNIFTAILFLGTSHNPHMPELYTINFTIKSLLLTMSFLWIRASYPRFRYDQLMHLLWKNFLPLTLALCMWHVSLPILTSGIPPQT
# B. taurus (heart) complex I, sequence (P17694 34-463): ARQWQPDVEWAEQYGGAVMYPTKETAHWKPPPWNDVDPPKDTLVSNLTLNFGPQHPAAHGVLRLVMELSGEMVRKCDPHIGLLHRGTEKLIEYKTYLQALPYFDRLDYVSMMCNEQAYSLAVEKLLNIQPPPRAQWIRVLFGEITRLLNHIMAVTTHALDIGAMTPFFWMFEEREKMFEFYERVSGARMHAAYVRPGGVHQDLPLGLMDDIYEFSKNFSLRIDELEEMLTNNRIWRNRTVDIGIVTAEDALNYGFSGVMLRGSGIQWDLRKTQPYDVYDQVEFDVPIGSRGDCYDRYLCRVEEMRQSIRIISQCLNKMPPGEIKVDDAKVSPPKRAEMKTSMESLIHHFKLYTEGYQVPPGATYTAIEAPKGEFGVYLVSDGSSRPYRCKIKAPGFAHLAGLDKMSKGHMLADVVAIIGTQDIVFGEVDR
# B. taurus (heart) complex I, sequence (P42026 38-216): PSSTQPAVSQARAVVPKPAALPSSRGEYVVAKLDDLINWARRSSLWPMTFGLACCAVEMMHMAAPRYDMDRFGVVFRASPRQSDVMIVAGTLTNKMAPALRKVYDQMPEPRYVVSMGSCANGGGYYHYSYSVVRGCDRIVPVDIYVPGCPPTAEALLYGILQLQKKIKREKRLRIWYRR
# Method in brief: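 Complex I activity followed as DCIP reduction (600 nm, 30 s reads, 15 min) with 80 μM NADH and 60 μM decylubiquinone in 25 mM KPi pH 7.5 containing 2 μM antimycin A and 2 mM KCN. Freeze-thawed mouse or bovine heart mitochondria at 0.2 mg/mL; initial-rate percent of solvent control, single-point 100 μM or dose-response.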
# [2] = target: C. elegans (N2) complex I (NADH:ubiquinone oxidoreductase) (Caenorhabditis elegans, UniProt P24887+Q93873+Q94360); assay: biochemical; assay type: biochemical
# C. elegans (N2) complex I (NADH:ubiquinone oxidoreductase), sequence (Q94360 17-199): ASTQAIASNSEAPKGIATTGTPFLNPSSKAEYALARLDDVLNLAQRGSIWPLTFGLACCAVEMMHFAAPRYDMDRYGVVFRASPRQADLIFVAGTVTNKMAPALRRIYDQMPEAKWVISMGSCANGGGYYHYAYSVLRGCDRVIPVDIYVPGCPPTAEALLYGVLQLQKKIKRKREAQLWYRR
# C. elegans (N2) complex I (NADH:ubiquinone oxidoreductase), sequence (P24887 whole entry): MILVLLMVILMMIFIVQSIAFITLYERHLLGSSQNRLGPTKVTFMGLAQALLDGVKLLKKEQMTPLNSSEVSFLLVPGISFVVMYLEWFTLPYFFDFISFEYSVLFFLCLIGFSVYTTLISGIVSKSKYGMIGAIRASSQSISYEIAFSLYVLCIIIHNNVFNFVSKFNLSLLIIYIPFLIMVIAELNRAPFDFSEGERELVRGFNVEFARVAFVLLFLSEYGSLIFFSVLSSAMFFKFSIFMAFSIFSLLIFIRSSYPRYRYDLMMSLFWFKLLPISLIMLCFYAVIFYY
# C. elegans (N2) complex I (NADH:ubiquinone oxidoreductase), sequence (Q93873 31-482): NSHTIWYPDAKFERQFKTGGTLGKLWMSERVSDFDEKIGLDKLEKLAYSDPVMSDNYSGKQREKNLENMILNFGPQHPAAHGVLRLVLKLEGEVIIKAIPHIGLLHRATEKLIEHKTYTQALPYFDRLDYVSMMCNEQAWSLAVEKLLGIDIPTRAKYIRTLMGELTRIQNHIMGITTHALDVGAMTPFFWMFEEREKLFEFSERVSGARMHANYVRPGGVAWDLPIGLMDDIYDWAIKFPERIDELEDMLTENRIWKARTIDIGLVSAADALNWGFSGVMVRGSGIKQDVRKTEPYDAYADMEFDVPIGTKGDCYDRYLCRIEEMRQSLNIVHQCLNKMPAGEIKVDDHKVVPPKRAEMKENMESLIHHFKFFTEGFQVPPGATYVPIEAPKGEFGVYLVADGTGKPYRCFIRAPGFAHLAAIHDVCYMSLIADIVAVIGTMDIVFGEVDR
# Method in brief: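 Complex I rate: initial linear slope of A600 over 15 min, expressed as percent of solvent control. Triple freeze-thawed mitochondria (0.2 mg/mL) in KPi pH 7.5, BSA 3 mg/mL, NADH 80 μM, decylubiquinone 60 μM, DCIP 160 μM, antimycin A, KCN.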
compound,measurement,setting,value
Cc1nc2ccccc2n1CCOc1ccccc1Cl [Compound 5561642],LC50,L1 wild-type C. elegans,11.7 µM
same,IC50,"[1]; B. taurus heart mitochondria, read-out: B. taurus Complex I IC50",8.05 µM
same,activity at 0.0001 µM,"[1]; Dose 0.0001 µM, read-out: B. taurus mitochondrial complex I activity",88.4%
same,activity at 0.0005 µM,"[1]; Dose 0.0005 µM, read-out: B. taurus mitochondrial complex I activity",88.9%
same,activity at 0.001 µM,"[1]; Dose 0.001 µM, read-out: B. taurus mitochondrial complex I activity",90.3%
same,activity at 0.0025 µM,"[1]; Dose 0.0025 µM, read-out: B. taurus mitochondrial complex I activity",85.7%
same,activity at 0.005 µM,"[1]; Dose 0.005 µM, read-out: B. taurus mitochondrial complex I activity",90.4%
same,activity at 0.013 µM,"[1]; Dose 0.013 µM, read-out: B. taurus mitochondrial complex I activity",86.9%
same,activity at 0.025 µM,"[1]; Dose 0.025 µM, read-out: B. taurus mitochondrial complex I activity",83.6%
same,activity at 0.063 µM,"[1]; Dose 0.063 µM, read-out: B. taurus mitochondrial complex I activity",88.9%
same,activity at 0.125 µM,"[1]; Dose 0.125 µM, read-out: B. taurus mitochondrial complex I activity",88.4%
same,activity at 0.313 µM,"[1]; Dose 0.313 µM, read-out: B. taurus mitochondrial complex I activity",83.2%
same,activity at 0.625 µM,"[1]; Dose 0.625 µM, read-out: B. taurus mitochondrial complex I activity",86.2%
same,activity at 1.5 µM,"[1]; Dose 1.5 µM, read-out: B. taurus mitochondrial complex I activity",75.9%
same,activity at 3 µM,"[1]; Dose 3 µM, read-out: B. taurus mitochondrial complex I activity",63.2%
same,activity at 15 µM,"[1]; Dose 15 µM, read-out: B. taurus mitochondrial complex I activity",29.8%
same,activity at 37.5 µM,"[1]; Dose 37.5 µM, read-out: B. taurus mitochondrial complex I activity",11.9%
same,activity at 75 µM,"[1]; Dose 75 µM, read-out: B. taurus mitochondrial complex I activity",6%
same,Log IC50 B. taurus complex I,"[1]; log10 of IC50 in µM, B. taurus mitochondria",0.91 µM
same,activity at 0.0001 µM,"[2]; Dose 0.0001 µM, read-out: C. elegans mitochondrial complex I activity",91.5%
same,activity at 0.0005 µM,"[2]; Dose 0.0005 µM, read-out: C. elegans mitochondrial complex I activity",94%
same,activity at 0.001 µM,"[2]; Dose 0.001 µM, read-out: C. elegans mitochondrial complex I activity",89.2%
same,activity at 0.0025 µM,"[2]; Dose 0.0025 µM, read-out: C. elegans mitochondrial complex I activity",95%
same,activity at 0.005 µM,"[2]; Dose 0.005 µM, read-out: C. elegans mitochondrial complex I activity",93.1%
same,activity at 0.013 µM,"[2]; Dose 0.013 µM, read-out: C. elegans mitochondrial complex I activity",84.7%
same,activity at 0.025 µM,"[2]; Dose 0.025 µM, read-out: C. elegans mitochondrial complex I activity",83.1%
same,activity at 0.063 µM,"[2]; Dose 0.063 µM, read-out: C. elegans mitochondrial complex I activity",81.1%
same,activity at 0.125 µM,"[2]; Dose 0.125 µM, read-out: C. elegans mitochondrial complex I activity",84.1%
same,activity at 0.313 µM,"[2]; Dose 0.313 µM, read-out: C. elegans mitochondrial complex I activity",65.5%
same,activity at 0.625 µM,"[2]; Dose 0.625 µM, read-out: C. elegans mitochondrial complex I activity",71.7%
same,activity at 1.5 µM,"[2]; Dose 1.5 µM, read-out: C. elegans mitochondrial complex I activity",51.9%
same,activity at 3 µM,"[2]; Dose 3 µM, read-out: C. elegans mitochondrial complex I activity",40.7%
same,activity at 15 µM,"[2]; Dose 15 µM, read-out: C. elegans mitochondrial complex I activity",12.4%
same,activity at 37.5 µM,"[2]; Dose 37.5 µM, read-out: C. elegans mitochondrial complex I activity",4.46%
same,activity at 75 µM,"[2]; Dose 75 µM, read-out: C. elegans mitochondrial complex I activity",4.41%
same,IC50,"[2]; in vitro complex I dose response on C. elegans mitochondria, average of at least two biological replicates, fit in R (DRC), read-out: IC50 C. elegans complex I",2.35 µM
same,Log IC50 C. elegans complex I,"[2]; log10 of IC50 in µM, C. elegans mitochondria",0.37 µM
same,IC50,"[2]; wild-type C. elegans mitochondria, read-out: C. elegans Complex I IC50",2.35 µM
